Results: patent publication US20260085076A1, “CRYSTAL FORM OF AROMATIC HETEROCYCLIC COMPOUND, COMPOSITION THEREOF, PRODUCTION METHOD THEREOF AND USES THEREOF” (Hangzhou Yuhong Pharmaceutical Technology Co., Ltd., priority 2023, published 2026)

How the values were obtained:
JAK3 kinase = molecular target: T1, JAK3 kinase (Homo sapiens, UniProt P52333); assay: Mobility shift assay, JAK3 kinase inhibitory activity; assay type: biochemical; settings: Caliper EZ Reader
T1 sequence (P52333 1-1124): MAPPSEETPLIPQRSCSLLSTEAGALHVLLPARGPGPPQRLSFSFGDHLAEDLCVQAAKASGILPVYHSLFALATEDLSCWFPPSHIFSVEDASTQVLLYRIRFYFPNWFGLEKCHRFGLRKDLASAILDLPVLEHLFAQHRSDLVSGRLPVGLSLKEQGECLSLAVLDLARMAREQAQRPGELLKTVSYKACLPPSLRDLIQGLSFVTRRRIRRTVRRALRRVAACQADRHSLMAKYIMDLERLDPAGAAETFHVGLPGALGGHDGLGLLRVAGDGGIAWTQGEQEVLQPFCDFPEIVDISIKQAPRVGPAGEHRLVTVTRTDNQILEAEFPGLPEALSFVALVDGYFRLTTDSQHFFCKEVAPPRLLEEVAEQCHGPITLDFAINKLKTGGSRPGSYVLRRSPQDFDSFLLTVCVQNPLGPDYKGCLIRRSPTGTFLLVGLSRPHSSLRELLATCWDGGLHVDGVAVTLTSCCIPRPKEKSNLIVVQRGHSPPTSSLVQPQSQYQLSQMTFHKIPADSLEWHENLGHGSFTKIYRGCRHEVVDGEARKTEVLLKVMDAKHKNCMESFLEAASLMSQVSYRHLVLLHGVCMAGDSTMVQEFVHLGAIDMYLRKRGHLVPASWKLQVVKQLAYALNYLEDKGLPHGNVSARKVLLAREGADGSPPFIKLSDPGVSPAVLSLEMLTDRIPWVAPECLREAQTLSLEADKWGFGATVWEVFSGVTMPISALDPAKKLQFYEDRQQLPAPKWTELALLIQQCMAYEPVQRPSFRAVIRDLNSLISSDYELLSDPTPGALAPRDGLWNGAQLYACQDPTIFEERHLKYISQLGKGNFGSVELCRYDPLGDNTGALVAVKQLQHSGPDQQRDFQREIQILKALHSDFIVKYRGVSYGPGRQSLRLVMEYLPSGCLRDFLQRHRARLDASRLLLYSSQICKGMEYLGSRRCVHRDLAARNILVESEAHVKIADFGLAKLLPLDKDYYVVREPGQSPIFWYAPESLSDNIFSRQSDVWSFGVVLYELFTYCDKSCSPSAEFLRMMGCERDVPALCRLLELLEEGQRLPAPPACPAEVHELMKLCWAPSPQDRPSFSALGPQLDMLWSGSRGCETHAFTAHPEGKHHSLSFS
Procedure: Mobility shift assay was used to detect the in vitro inhibitory activity of the test compounds (listed below) on JAK3 kinase activity. Cerdulatinib (supplier: selleckchem; Article number: S7634) was used as a positive control compound.
Compound was dissolved in 100% DMSO to formulate a 10 mM stock solution and stored in a −20° C. refrigerator away from light.
(1) 1×Kinase buffer was prepared.
After being gradient dilution to a 100-fold final concentration, 250 nL of solutions were transferred to a 384-well plate using Echo550. 250 nL of 100% DMSO were added to each of the negative control wells and the positive control wells, respectively.
(3) 2.5 times a final concentration of kinase solution was prepared with 1×Kinase buffer. […]
(10) The conversion rate was read by Caliper EZ Reader.
Wherein: Conversion %_sample is the conversion rate reading of the sample; Conversion %_min: the mean value of the negative control wells, representing the conversion rate reading of the wells without enzyme activity; Conversion %_max: the mean value of the positive control wells, representing the conversion rate reading of the wells without compound inhibition; % Inhibition represents the percentage inhibition rate. […]

[1] = system: p-STAT5 under IL-15 stimulation in PBMC (JAK-STAT pathway); assay: p-STAT5 ELISA in IL-15 stimulated hPBMC cells; assay type: cell-based, human; settings: Homo sapiens, PBMC, 45 min compound, 30 min IL-15, ELISA
Procedure: Based on the mechanism of JAK-STAT pathway, the effect of the compounds on the JAK-STAT pathway were evaluated by using cytokine IL-15 to stimulate hPBMC cells, and using the downstream STAT5 phosphorylation level as the detection index.
1. PBMC cell counting plate: 90 μL PBMC was seeded in a 96-well plate (PBMC cell density 80,000/well).
2. Treatment with test compounds: After cells being seeded, drug treatment was carried out immediately. The drugs to be tested at 5 μL/well (final concentrations 1, 0.5, 0.1, 0.05, 0.01, and 0.005 μM) were incubated at 37° C. for 45 min.
3. Cytokine IL-15 stimulation: The cells were stimulated by 5 μL IL-15, and incubated at 37° C. for 30 min.
4. Protein sample collection: The cells were collected in a centrifuge tube and centrifuged for 5 minutes. The supernatant was discarded and cells were lysed with 1× Cell Extraction Buffer PTR.
5. p-STAT5 detection: Perform detection according to the requirements of the ELISA kit.
Experimental results: IC50 values of compounds on p-STAT5 under IL-15 stimulation in PBMC

SRBC mouse model = assay: SRBC-induced delayed-type hypersensitivity (DTH) in mice; assay type: in vivo, Balb/c mice; settings: 100 mg/kg gavage once a day, day 0 to day 6, FIG. 76
Procedure: Drug formulation: The compound was added to 0.5% CMC-Na solution to formulate a drug suspension (dosage is 10 mg/mL).
Induction and administration of delayed-type hypersensitivity (DTH): 30 male Balb/c mice were weighed and randomly divided into 6 groups according to body weight, with 5 mice in each group. The experimental period lasted for 7 days. On day 0, mice were sensitized by subcutaneous injection of sheep red blood cells (SRBC). The mice were performed gavage administration at 100 mg/kg (once a day) from day 0 to day 6. On day 6, the mice were injected SRBC into the right hind foot pad for challenge. Measurements were taken on the 7th day of the experiment, and the experiment was concluded.
Pharmacodynamic detection indicators of disease models: the detection and observation indicators are the redness and swelling degree and thickness of the paw pads of SRBC-induced mice. The thickness of the right paw was measured on day 6 before the SRBC injection challenge as the baseline. The thickness of the right paw was measured again at the end of the experiment, the difference in paw thickness before and after the second injection was calculated.
Statistical analysis: The experimental data were expressed as mean±standard deviation (Mean±SD). All data were statistically analyzed using T-test, with P<0.05 considered statistically significant.

[2] = system: collagen-induced arthritis model in mice; assay: Collagen-induced arthritis model in mice (mCIA); assay type: in vivo, DBA/1J mice; settings: 50 mg/kg once a day, FIG. 77
Procedure: 1. Construction of collagen-induced arthritis model in mice (mCIA) Experimental purpose: To test the immunosuppressive activity of YZ001052 in the mCIA model. PF-06651600 was used as a positive control compound.
Complete and incomplete Freund's adjuvants with chicken type II collagen solution were mixed in equal proportions to form emulsions. Except for the blank control group, a mixture of complete Freund's adjuvant and chicken type II collagen solution was injected subcutaneously into the base of the tail and thigh of mice on Day 0. Each mouse was injected subcutaneously with 100 μL at the base of the tail, and injected 50 μL subcutaneously at the base of both thighs (primary immunization). On day 21, mice were injected subcutaneously with 200 μL of a mixture of incomplete Freund's adjuvant and chicken type II collagen as a booster injection (second immunization). Arthritis was considered to occur if the clinical score of at least one limb was >2 points. Paw thickness measurement: Using a vernier caliper to measure the thickness of the left and right hind feet of the mouse and record it, which is the degree of paw swelling. The detection frequency was once every 3 days.

[3] = system: DSS-induced inflammatory bowel disease model in mice; assay: DSS-induced mouse inflammatory bowel disease model; assay type: in vivo, C57BL/6 mice; settings: 50 mg/kg once a day, 5% DSS, day 8, compared with model group, FIG. 78
Procedure: Experimental purpose: To test the immunosuppressive activity of YZ001052 in DSS-induced inflammatory bowel disease model in mice. PF-06651600 was used as a positive control compound.
50 g of DSS was added 1000 mL of sterile water to formulate a 5% DSS solution, and the solution was filtered with a 0.22 μm filter membrane. Starting from day 0, the blank group was gave drinking water without DSS, and the other experimental groups were gave drinking water containing 5% DSS. All mice were sacrificed on day 8. After the experiment, the colon was collected, photographed and measured for length. The data were analyzed according to Statistics.

[4] = system: mouse model of acute radiation-induced lung injury; assay: Acute radiation-induced lung injury in mice; assay type: in vivo, C57BL/6 mice; settings: 30 mg/kg q.d., 22.5 Gy whole lung, three weeks after modeling
Procedure: Eighteen female C57BL/6 mice were divided randomly into three groups: blank control group, simple irradiation group, and irradiation+ drug YZ001052 (30 mg/kg q. d) intervention group, with 6 mice in each group.
The mice were anesthetized with 1% sodium pentobarbital by intraperitoneal injection, and irradiated the whole lung with 22.5 Gy in a single shot using 220 KV X-rays through the Small Animal Precision Radiotherapy Research Platform (SARRP). After irradiation, the mice were housed in a normal manner.
Three weeks after modeling, the mice were anesthetized and dissected. The lung tissues were exposed and the left lung was ligated, an open tracheotomy was performed, the lung was lavaged with cold PBS, and the alveolar lavage fluid (BALF) was collected and centrifuged at 4° C.
The supernatant was collected to detect the content of inflammatory factor TNF-α by ELISA.
Resuspend the bronchoalveolar lavage fluid cell pellet in 200 μL PBS for white blood cell (WBC) counting.

## C=CC(=O)N1CCc2c(c(-c3ccnc4[nH]ccc34)nn2C)C1 [YZ001052, 1-(1-methyl-3-(1H-pyrrolo[2,3-b]pyridin-4-yl)-1,4,6,7-tetrahydro-5H-pyrazolo[4,3-c]pyridin-5-yl)prop-2-en-1-one]
JAK3 kinase
  IC50: 0.25 nM
[1]
  IC50: 10.7 nM
SRBC mouse model
  immunosuppressive effect on SRBC-induced delayed-type hypersensitivity (right paw thickness): significant immunosuppressive effects
[2]; CIA mice
  paw swelling: improved to varying degrees
[2]; compared with the model group
  arthritis score: significantly decreased
[3]
  colorectal length: significantly increased
[4]; FIG. 79
  TNF-α level in bronchoalveolar lavage fluid: good inhibitory effect
[4]; FIG. 80
  number of inflammatory cell infiltration in the lungs (white blood cells in BALF): significantly reduce
